# Assay results: publication PMC12010937, “Evaluation of FXR Activity in Pollutants Identified in Sewage Sludge and Subsequent in Vitro and in Vivo Characterization of Metabolic Effects of Triphenyl Phosphate” (Environmental Health Perspectives, 2025)
# Where two headings read alike, the source gives them in different places.
# Tested on: C57BL/6N mice
# Settings: TPHP-H group, liver
# [1] = adduct [M+Na]+, first of two TG 52:3 lines
# [2] = adduct [M+Na]+, second of two TG 52:3 lines
smiles,measurement,setting,value
"O=P(Oc1ccccc1)(Oc1ccccc1)Oc1ccccc1 [TPHP, triphenyl phosphate]",Z-score of CAR 6:0,adduct [M+H]+,0.97
same,Z-score of CAR 10:0,adduct [M+H]+,0.72
same,Z-score of CAR 12:0,adduct [M+H]+,0.32
same,Z-score of CAR 16:2,adduct [M+H]+,1.03
same,Z-score of CAR 18:2,adduct [M+H]+,1.01
same,Z-score of CAR 18:4,adduct [M+H]+,0.35
same,Z-score of CAR 20:4,adduct [M+H]+,0.29
same,Z-score of NAE 14:0,adduct [M+H]+,-0.67
same,Z-score of NAE 20:5,adduct [M+H]+,-0.01
same,Z-score of PC 40:6,adduct [M+H]+,-0.91
same,Z-score of PS 36:4,adduct [M+H]+,0.46
same,Z-score of SM 27:5;O2,adduct [M+H]+,0.61
same,Z-score of SM 28:3;O3,adduct [M+H]+,0.70
same,Z-score of SM 31:3;O3,adduct [M+H]+,-0.94
same,Z-score of SM 41:2;O2,adduct [M+H]+,0.44
same,average intensity of CAR 6:0,adduct [M+H]+,3598107
same,average intensity of CAR 10:0,adduct [M+H]+,1728654
same,average intensity of CAR 12:0,adduct [M+H]+,2142093
same,average intensity of CAR 16:2,adduct [M+H]+,3030917
same,average intensity of CAR 18:2,adduct [M+H]+,20111001
same,average intensity of CAR 18:4,adduct [M+H]+,9217007
same,average intensity of CAR 20:4,adduct [M+H]+,30801597
same,average intensity of NAE 14:0,adduct [M+H]+,23845
same,average intensity of NAE 20:5,adduct [M+H]+,31668356
same,average intensity of PC 40:6,adduct [M+H]+,6977163
same,average intensity of PS 36:4,adduct [M+H]+,1402007
same,average intensity of SM 27:5;O2,adduct [M+H]+,18765822
same,average intensity of SM 28:3;O3,adduct [M+H]+,1926974
same,average intensity of SM 31:3;O3,adduct [M+H]+,284040
same,average intensity of SM 41:2;O2,adduct [M+H]+,8959905
same,Z-score of BMP 25:4,adduct [M+NH4]+,-0.92
same,Z-score of BMP 30:5,adduct [M+NH4]+,-0.72
same,Z-score of BMP 38:4,adduct [M+NH4]+,-0.80
same,Z-score of PG 21:2,adduct [M+NH4]+,-0.95
same,Z-score of PI 39:10,adduct [M+NH4]+,-0.92
same,Z-score of TG 48:11,adduct [M+NH4]+,-0.82
same,Z-score of TG 55:4,adduct [M+NH4]+,1.02
same,average intensity of BMP 25:4,adduct [M+NH4]+,4738753
same,average intensity of BMP 30:5,adduct [M+NH4]+,17597
same,average intensity of BMP 38:4,adduct [M+NH4]+,940807
same,average intensity of PG 21:2,adduct [M+NH4]+,816725
same,average intensity of PI 39:10,adduct [M+NH4]+,61034
same,average intensity of TG 48:11,adduct [M+NH4]+,5429634
same,average intensity of TG 55:4,adduct [M+NH4]+,11320635
same,Z-score of Cer 42:1;O2,adduct [M+Na]+,-0.92
same,Z-score of Cer 64:6;O2,adduct [M+Na]+,0.66
same,Z-score of DG 19:1,adduct [M+Na]+,-0.58
same,Z-score of DG 26:5,adduct [M+Na]+,-0.58
same,Z-score of DG 26:6,adduct [M+Na]+,-0.75
same,Z-score of PC 29:5,adduct [M+Na]+,-0.84
same,Z-score of PC 38:6,adduct [M+Na]+,-0.76
same,Z-score of PC 42:9,adduct [M+Na]+,-0.79
same,Z-score of PS 40:7,adduct [M+Na]+,0.85
same,Z-score of TG 52:2,adduct [M+Na]+,0.76
same,Z-score of TG 52:4,adduct [M+Na]+,0.88
same,average intensity of Cer 42:1;O2,adduct [M+Na]+,679331
same,average intensity of Cer 64:6;O2,adduct [M+Na]+,17434974
same,average intensity of DG 19:1,adduct [M+Na]+,4218
same,average intensity of DG 26:5,adduct [M+Na]+,1190306
same,average intensity of DG 26:6,adduct [M+Na]+,269918
same,average intensity of PC 29:5,adduct [M+Na]+,1903378
same,average intensity of PC 38:6,adduct [M+Na]+,3451074
same,average intensity of PC 42:9,adduct [M+Na]+,130359
same,average intensity of PS 40:7,adduct [M+Na]+,5213900
same,average intensity of TG 52:2,adduct [M+Na]+,10933392
same,average intensity of TG 52:4,adduct [M+Na]+,3390540
same,Z-score of TG 52:3,[1],0.89
same,average intensity of TG 52:3,[1],1451015
same,Z-score of TG 52:3,[2],0.90
same,average intensity of TG 52:3,[2],11832628
same,Z-score of Cer 40:1;O2,adduct [M-H]-,-0.86
same,Z-score of Cer 41:1;3O(2OH),adduct [M-H]-,-0.76
same,Z-score of Cer 42:1;3O(2OH),adduct [M-H]-,-0.75
same,Z-score of Cer 43:1;3O(2OH),adduct [M-H]-,-0.75
same,Z-score of FA 10:1,adduct [M-H]-,-0.63
same,Z-score of FA 14:2,adduct [M-H]-,0.87
same,Z-score of FA 16:2;O,adduct [M-H]-,0.12
same,Z-score of FA 19:2;O2,adduct [M-H]-,0.47
same,Z-score of PG 34:2,adduct [M-H]-,-0.59
same,Z-score of PG 44:12,adduct [M-H]-,-0.58
same,Z-score of PI 36:3,adduct [M-H]-,-0.62
same,Z-score of PI 38:4,adduct [M-H]-,0.28
same,average intensity of Cer 40:1;O2,adduct [M-H]-,112540
same,average intensity of Cer 41:1;3O(2OH),adduct [M-H]-,650455
same,average intensity of Cer 42:1;3O(2OH),adduct [M-H]-,109690
same,average intensity of Cer 43:1;3O(2OH),adduct [M-H]-,95819
same,average intensity of FA 10:1,adduct [M-H]-,124984
same,average intensity of FA 14:2,adduct [M-H]-,2337946
same,average intensity of FA 16:2;O,adduct [M-H]-,718403
same,average intensity of FA 19:2;O2,adduct [M-H]-,6586718
same,average intensity of PG 34:2,adduct [M-H]-,89164
same,average intensity of PG 44:12,adduct [M-H]-,16526
same,average intensity of PI 36:3,adduct [M-H]-,224637
same,average intensity of PI 38:4,adduct [M-H]-,36494581
